This is an account of results in patent US9890117B2, “Benzamide compounds and related methods of use” (Northwestern University, priority 2012, dated 2018).

The structures appear in SMILES notation. Structures can show the parent of a compound that is named as a salt.

One data set addresses T1, SIRT2 (Homo sapiens, UniProt Q8IXJ6).
T1 construct: recombinant active enzymes SIRT1, SIRT2, and the catalytically active fragment of SIRT3
T1 sequence (Q8IXJ6 1-389): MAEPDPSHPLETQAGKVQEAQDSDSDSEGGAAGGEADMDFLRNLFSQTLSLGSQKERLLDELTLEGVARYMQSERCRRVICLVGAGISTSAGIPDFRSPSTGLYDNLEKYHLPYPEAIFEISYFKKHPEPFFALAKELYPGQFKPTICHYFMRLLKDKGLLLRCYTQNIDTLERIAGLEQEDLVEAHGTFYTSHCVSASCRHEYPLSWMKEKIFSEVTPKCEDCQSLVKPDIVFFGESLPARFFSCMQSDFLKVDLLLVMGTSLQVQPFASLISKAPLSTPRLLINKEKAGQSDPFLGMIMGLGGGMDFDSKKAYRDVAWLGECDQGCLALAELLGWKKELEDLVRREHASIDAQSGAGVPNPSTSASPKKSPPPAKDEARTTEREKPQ
The data set is described as follows: Fluor-de-Lys biochemical sirtuin deacetylation assay, SIRT2. Conditions: 10 μM.

Turning to `CN(c1ccc(Cl)cc1)S(=O)(=O)c1cccc(C(=O)Nc2ccc(C#N)cc2F)c1` [Compound 203Ab, 3-(N-(4-chlorophenyl)-N-methylsulfamoyl)-N-(4-cyano-2-fluorophenyl)benzamide], the melting point (in general, the temperature of the solid-liquid transition) fell in the range of 158 to 159 °C.
Compound `CN(C(=O)c1cccc(S(=O)(=O)N(C)c2ccc(Cl)cc2)c1)c1ccc(C#N)cc1F` [Compound 203Ac, 3-(N-(4-chlorophenyl)-N-methylsulfamoyl)-N-(4-cyano-2-fluorophenyl)-N-methylbenzamide] came in with a melting point of 169 to 170 °C. For the same compound, the inhibition (as a rule, how much of the control response was suppressed) at 10 µM against SIRT2 stood at 15%.
`CN(c1ccc(S(C)(=O)=O)cc1)S(=O)(=O)c1cccc(C(=O)Nc2ccc(Cl)cc2F)c1` [Compound 203Ae, N-(4-chloro-2-fluorophenyl)-3-(N-methyl-N-(4-(methylsulfonyl)phenyl)sulfamoyl)-benzamide] showed a melting point of 182 to 183 °C. Also, on SIRT2, the inhibition at 10 µM is 26%.
As for `CN(c1ccc(CN)cc1)S(=O)(=O)c1cccc(C(=O)Nc2ccc(C#N)cc2)c1.Cl` [Compound 203Af, 3-(N-(4-(aminomethyl)phenyl)-N-methylsulfamoyl)-N-(4-cyanophenyl)benzamide hydrochloride], the melting point was 169 to 171 °C. Besides, the inhibition at 10 µM at SIRT2 was found to be 15%.
For the compound `CN(C(=O)c1cccc(S(=O)(=O)N(C)c2ccc([S+](C)[O-])cc2)c1)c1ccc(Cl)cc1F` (centres unmarked) [Compound 203Ag, N-(4-chloro-2-fluorophenyl)-N-methyl-3-(N-methyl-N-(4-(methylsulfinyl)phenyl)-sulfamoyl)benzamide], the melting point was 104 to 106 °C. The compound further gave an inhibition at 10 µM on SIRT2 of 14%.
Consider `CN(C(=O)c1cccc(S(=O)(=O)N(C)c2ccc(S(C)(=O)=O)cc2)c1)c1ccc(Cl)cc1F` [Compound 203Ah, N-(4-chloro-2-fluorophenyl)-N-methyl-3-(N-methyl-N-(4-(methylsulfonyl)phenyl)-sulfamoyl)benzamide], for which the melting point is 159 to 160 °C. Besides, the inhibition at 10 µM on SIRT2 was 16%.
`CN(c1ccc(S(C)(=O)=O)cc1)S(=O)(=O)c1cccc(C(=O)Nc2ccc(C#N)cc2F)c1` [Compound 203Ai, N-(4-cyano-2-fluorophenyl)-3-(N-methyl-N-(4-(methylsulfonyl)phenyl)-sulfamoyl)benzamide] showed a melting point of 188 to 189 °C. The same compound showed an inhibition at 10 µM on SIRT2 of 16%.
As to `CN(c1ccc([S+](C)[O-])cc1)S(=O)(=O)c1cccc(C(=O)Nc2ccc(C#N)cc2F)c1` (centres unmarked) [Compound 203Aj, N-(4-cyano-2-fluorophenyl)-3-(N-methyl-N-(4-(methylsulfinyl)phenyl)sulfamoyl)-benzamide], the melting point fell in the range of 192 to 194 °C. This compound had an inhibition at 10 µM on SIRT2 of 10%.
Take `CN(C(=O)c1cccc(S(=O)(=O)N(C)c2ccc(S(C)(=O)=O)cc2)c1)c1ccc(C#N)cc1F` [Compound 203Ak, N-(4-cyano-2-fluorophenyl)-N-methyl-3-(N-methyl-N-(4-(methylsulfonyl)phenyl)-sulfamoyl)benzamide]: the melting point was 156 to 157 °C. Also, at SIRT2, the inhibition at 10 µM was 0%.
In turn, `CN(C(=O)c1cccc(S(=O)(=O)N(C)c2ccc([S+](C)[O-])cc2)c1)c1ccc(C#N)cc1F` (centres unmarked) [Compound 203Al, N-(4-cyano-2-fluorophenyl)-N-methyl-3-(N-methyl-N-(4-(methylsulfinyl)phenyl)-sulfamoyl)benzamide] displayed a melting point of 148 to 150 °C. The same compound gave an inhibition at 10 µM at SIRT2 of 0%.
`CN(c1ccc(Cl)cc1)S(=O)(=O)c1cc(C(=O)Nc2ccc(C#N)cc2)ccn1` [Compound 203Am, 2-(N-(4-chlorophenyl)-N-methylsulfamoyl)-N-(4-cyanophenyl)isonicotinamide] displayed a melting point of 195 to 197 °C.
`CN(c1ccc(Cl)cc1)S(=O)(=O)c1cc(C(=O)Nc2ccc([S+](C)[O-])cc2)ccn1` (centres unmarked) [Compound 203An, 2-(N-(4-chlorophenyl)-N-methylsulfamoyl)-N-(4-(methylsulfinyl)phenyl)-isonicotinamide]: the melting point lay within 172 to 174 °C. Further, the inhibition at 10 µM against SIRT2 was 28%.
In turn, `CN(c1ccc([S+](C)[O-])cc1)S(=O)(=O)c1cc(C(=O)Nc2ccc(Cl)cc2F)ccn1` (centres unmarked) [Compound 203Aq, N-(4-chloro-2-fluorophenyl)-2-(N-methyl-N-(4-(methylsulfinyl)phenyl)sulfamoyl)-isonicotinamide] displayed a melting point of 178 to 179 °C. For the same compound, on SIRT2, the inhibition at 10 µM was determined as 14%.
For `CN(c1ccc([S+](C)[O-])cc1)S(=O)(=O)c1cc(C(=O)Nc2ccc(C#N)cc2)ccn1` (centres unmarked) [Compound 203Ar, N-(4-cyanophenyl)-2-(N-methyl-N-(4-(methylsulfinyl)phenyl)sulfamoyl)-isonicotinamide], the melting point was 243 to 245 °C (dec.). The same compound came in with an inhibition at 10 µM against SIRT2 of 20%.
Taken in the same sequence, the figures for `CN(c1ccc(S(C)(=O)=O)cc1)S(=O)(=O)c1cc(C(=O)Nc2ccc(C#N)cc2)ccn1` [Compound 203As, N-(4-cyanophenyl)-2-(N-methyl-N-(4-(methylsulfonyl)phenyl)sulfamoyl)-isonicotinamide] were 224 to 226 °C and 33%.
In the case of `N#Cc1ccc(NC(=O)c2cccc(S(=O)(=O)N(c3ccc(Cl)cc3)C3CC3)c2)cc1` [Compound 203Av, 3-(N-(4-chlorophenyl)-N-cyclopropylsulfamoyl)-N-(4-cyanophenyl)benzamide], the melting point lay in the range of 180 to 182 °C. The compound further displayed an inhibition at 10 µM against SIRT2 of 51%.
`CC(=O)c1ccc(N(C2CC2)S(=O)(=O)c2cccc(C(=O)Nc3ccc(C#N)cc3)c2)cc1` [Compound 203Aw, 3-(N-(4-acetylphenyl)-N-cyclopropylsulfamoyl)-N-(4-cyanophenyl)benzamide] showed a melting point of 185 to 186 °C. At SIRT2, this compound registered an inhibition at 10 µM of 61%.
In turn, `CCN(c1ccc(O)cc1)S(=O)(=O)c1cccc(C(=O)Nc2ccc(C#N)cc2)c1` [Compound 203Ay, N-(4-cyanophenyl)-3-(N-ethyl-N-(4-hydroxyphenyl)sulfamoyl)benzamide] showed a melting point of 102 to 104 °C. On SIRT2, this compound yielded an inhibition at 10 µM of 40%.
`CCOc1ccc(N(CC)S(=O)(=O)c2cccc(C(=O)Nc3ccc(C#N)cc3)c2)cc1` [Compound 203Az, N-(4-cyanophenyl)-3-(N-(4-ethoxyphenyl)-N-ethylsulfamoyl)benzamide] showed a melting point of 168 to 169 °C. This compound had an inhibition at 10 µM against SIRT2 of 59%.
Turning to `CN(C(=O)c1cccc(S(=O)(=O)N(C)c2ccc(Br)cc2)c1)c1ccc(Cl)cc1F` [Compound 203p, 3-(N-(4-bromophenyl)-N-methylsulfamoyl)-N-(4-chloro-2-fluorophenyl)-N-methylbenzamide], the melting point lay in the range of 127 to 128 °C.
Still for that read-out and setting: as for `CN(C(=O)c1cccc(S(=O)(=O)N(C)c2ccc(Br)cc2)c1)c1ccc(Br)cc1F` [Compound 203s, N-(4-bromo-2-fluorophenyl)-3-(N-(4-bromophenyl)-N-methylsulfamoyl)-N-methylbenzamide], the figure is 136 to 137 °C.
With `N#Cc1cccc(NC(=O)c2cncc(CN(Cc3ccc(F)c(F)c3)C3CC3)c2)c1` [Compound 225w, N-(3-cyanophenyl)-5-((cyclopropyl(3,4-difluorobenzyl)amino)methyl)nicotinamide hydrochloride], the inhibition at 10 µM against SIRT2 came out at 20%.
`CC(=O)c1ccc(CN(Cc2cccc(C(=O)Nc3ccc(C#N)cc3)c2)C2CC2)cc1` [Compound 225x, 3-(((4-acetylbenzyl)(cyclopropyl)amino)methyl)-N-(4-cyanophenyl)benzamide hydrochloride]: the inhibition at 10 µM at SIRT2 is 24%.
For `O=C(Cc1ccc(Cl)cc1)c1cccc(S(=O)(=O)N2CCCCCC2)c1` [Compound 231a, 1-(3-(azepan-1-ylsulfonyl)phenyl)-2-(4-chlorophenyl)ethanone], the melting point is 135 to 136 °C.
Compound `CN(c1ccc(Cl)cc1)S(=O)(=O)c1cccc(NC(=O)Nc2ccc(Cl)cc2)c1` [Compound 233a, N-(4-chlorophenyl)-3-(3-(4-chlorophenyl)ureido)-N-methylbenzenesulfonamide] had an inhibition at 10 µM against SIRT2 of 0%.
On the same count and under the same terms, as for `N#Cc1ccc(/N=C(/N)c2cccc(OCc3cccc(F)c3F)c2)cc1` [Compound 234a, N′-(4-cyanophenyl)-3-((2,3-difluorobenzyl)oxy)benzimidamide hydrochloride], the figure is 12%; as for `N#Cc1ccc(COc2cccc(/C(N)=N\c3ccc(C#N)cc3)c2)cc1` [Compound 234b, 3-((4-cyanobenzyl)oxy)-N′-(4-cyanophenyl)benzimidamide hydrochloride], 12%.
Still for that read-out and setting: the result for `C[C@@H](Oc1cccc(/C(N)=N\c2ccc(C#N)cc2)c1)c1ccc(C#N)cc1` [Compound 234c, (R)—N′-(4-cyanophenyl)-3-(1-(4-cyanophenyl)ethoxy)benzimidamide hydrochloride] reads 39%.
`COc1ccc(N(C)S(=O)(=O)c2cccc(/C(N)=N\c3ccc(C#N)cc3)c2)cc1` [Compound 234d, N′-(4-cyanophenyl)-3-(N-(4-methoxyphenyl)-N-methylsulfamoyl)benzimidamide hydrochloride] displayed an inhibition at 10 µM against SIRT2 of 12%.
On the same count and under the same terms, as for `N/C(=N/c1cccc([N+](=O)[O-])c1)c1cccc(S(=O)(=O)N2CCCCCC2)c1` [Compound 234e, 3-(azepan-1-ylsulfonyl)-N′-(3-nitrophenyl)benzimidamide], the figure is 27%.
